In publication PMC9762789, “Chromone-based monoamine oxidase B inhibitor with potential iron-chelating activity for the treatment of Alzheimer’s disease” (Journal of Enzyme Inhibition and Medicinal Chemistry, 2022):
Read-outs that look alike come from different tables or passages of the source.

Legend:
[1] = pKa determination by automated spectrophotometric titration; assay type: physicochemical; conditions: 0.1 M KCl solution
[2] = iron (III) affinity constants and pFe3+ by spectrophotometric titration; assay type: physicochemical; conditions: for Log β1 / Log β2 / Log β3: DMSO: KCl (0.1 M) = 1:1.5 (v/v); for pFe^3+: calculated from Log β values obtained in DMSO: KCl (0.1 M) = 1:1.5 (v/v)
[3] = target: T1, MAO-B (Homo sapiens, UniProt P27338); assay: hMAO-B inhibition assay; assay type: biochemical; conditions: hMAO-B, 100 nM; read-out: Inhibitory rate (%, 100 nM)
T1 construct: purchased Sigma-Aldrich
T1 sequence (P27338 1-520): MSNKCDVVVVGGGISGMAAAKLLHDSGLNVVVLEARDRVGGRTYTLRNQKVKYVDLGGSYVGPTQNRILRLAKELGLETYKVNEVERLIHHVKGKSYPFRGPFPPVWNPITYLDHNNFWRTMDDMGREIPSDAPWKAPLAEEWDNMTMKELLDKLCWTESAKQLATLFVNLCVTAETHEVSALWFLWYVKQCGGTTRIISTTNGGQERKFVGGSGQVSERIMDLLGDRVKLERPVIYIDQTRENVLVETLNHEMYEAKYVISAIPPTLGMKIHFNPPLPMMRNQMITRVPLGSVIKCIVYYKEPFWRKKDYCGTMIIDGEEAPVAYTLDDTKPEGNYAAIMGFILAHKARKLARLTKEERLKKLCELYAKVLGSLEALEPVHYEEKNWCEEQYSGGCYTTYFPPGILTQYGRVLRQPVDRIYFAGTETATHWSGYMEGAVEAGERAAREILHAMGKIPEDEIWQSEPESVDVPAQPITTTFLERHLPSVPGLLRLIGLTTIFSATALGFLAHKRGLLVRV
Description: The reagents and enzymes (Human MAO-B and Human MAO-A) applied in this experiment were purchased from Sigma-Aldrich. According to the manuals, all components (substrate solution and enzyme solution) are diluted and placed aside for use. The detailed process has been mentioned in our early work[34].

SMILES	pKa ([1]; read-out: pKa1)	pKa ([1]; read-out: pKa2)	Log β1 [2]	Log β2 [2]	Log β3 [2]	pFe^3+ [2]	inhibition at 0.1 µM [3] [%]	melting point [°C]
Cc1c(O)c(=O)ccn1CCNC(=O)c1coc2cc(OCc3ccc(Cl)cc3)ccc2c1=O [Compound 15g, 7-((4-Chlorobenzyl)oxy)-N-(2–(3-hydroxy-2-methyl-4-oxopyridin-1(4H)-yl)ethyl)-4-oxo-4H-chromene-3-carboxamide]	3.25	9.56	13.82	24.02	31.70	16.00	39.1 ± 0.5	241 to 243
Cc1cccc(COc2ccc3c(=O)c(C(=O)NCCn4ccc(=O)c(O)c4C)coc3c2)c1 [Compound 15b, N-(2–(3-hydroxy-2-methyl-4-oxopyridin-1(4H)-yl)ethyl)-7-((3-methylbenzyl)oxy)-4-oxo-4H-chromene-3-carboxamide]	3.06	9.73	13.64	25.57	34.21	17.80	39.1 ± 1.1	238 to 240
COc1ccc2occ(C(=O)NCCn3ccc(=O)c(O)c3C)c(=O)c2c1 [Compound 8e, N-(2–(3-hydroxy-2-methyl-4-oxopyridin-1(4H)-yl)ethyl)-6-methoxy-4-oxo-4H-chromene-3-carboxamide]	3.18	9.67	13.67	25.38	35.37	19.08	34.3 ± 2.2	260 to 262
Cc1ccc(COc2ccc3c(=O)c(CNCCn4ccc(=O)c(O)c4C)coc3c2)cc1 [Compound 17h, 3-Hydroxy-2-methyl-1–(2-(((7-((4-methylbenzyl)oxy)-4-oxo-4H-chromen-3-yl)methyl)amino)ethyl)pyridin-4(1H)-one]	2.56	9.59	12.87	24.73	33.36	17.34	30.1 ± 3.7	134 to 136
Cc1c(O)c(=O)ccn1CCNCc1coc2cc(OCc3cccc(F)c3)ccc2c1=O [Compound 17i, 1–(2-(((7-((3-Fluorobenzyl)oxy)-4-oxo-4H-chromen-3-yl)methyl)amino)ethyl)-3-hydroxy-2-methylpyridin-4(1H)-one]	2.58	9.68	12.93	24.99	34.10	17.81	39.48 ± 0.3	215 to 217
Cc1ccc2c(=O)c(C(=O)NCCn3ccc(=O)c(O)c3C)coc2c1 [Compound 8b, N-(2–(3-hydroxy-2-methyl-4-oxopyridin-1(4H)-yl)ethyl)-7-methyl-4-oxo-4H-chromene-3-carboxamide]	3.32	9.58	13.74	25.04	34.36	18.35	35.79 ± 0.2	270 to 272
Cc1ccc(COc2ccc3c(=O)c(C(=O)NCCn4ccc(=O)c(O)c4C)coc3c2)cc1 [Compound 15c, N-(2–(3-hydroxy-2-methyl-4-oxopyridin-1(4H)-yl)ethyl)-7-((4-methylbenzyl)oxy)-4-oxo-4H-chromene-3-carboxamide]	3.19	9.34	13.40	23.16	31.01	15.87	38.7 ± 0.5	234 to 236
Cc1c(O)c(=O)ccn1CCNC(=O)c1coc2cc(OCc3ccccc3)ccc2c1=O [Compound 15a, 7-(Benzyloxy)-N-(2–(3-hydroxy-2-methyl-4-oxopyridin-1(4H)-yl)ethyl)-4-oxo-4H-chromene-3-carboxamide]	3.3	9.59	13.77	24.72	32.17	16.45	39 ± 1.1	225 to 227
